Reference: patent US4164571A, “Medicament which antagonizes the action of gastrin and related polypeptides” (Commissariat a l'Energie Atomique, priority 1976, dated 1979)
Read-outs that look alike come from different tables or passages of the source.

How the values were obtained:
[1] = system: stimulated secretion of gastric juice; test: gastric acid secretion in rats under continuous intravenous perfusion; type: in vivo, rat
Method: In a second series of experiments an intravenous perfusion of an isotonic solution of […] sodium chloride was administered at a rate of 2.4 ml/h to rats prepared in the manner indicated hereinbefore according to the procedure of Ghosh and Schild, modified by Lai. This perfusion was administered to the vein of the penis.
The rats prepared in this manner were left at rest for at least 45 minutes, then the acidity was determined as hereinbefore on the gastric perfusate sampled every 10 minutes. […] At the end of the first hour a dose of gastrin I was added to the perfusion. The results obtained are given in FIG. 5a showing the variations of the gastric secretion as a function of time.

[2] = system: stimulated secretion of gastric juice; test: stimulated gastric acid secretion in anaesthetised perfused rats (Ghosh and Schild, modified by Lai), intravenous injection; type: in vivo, rat; conditions: for % inhibition of gastrin I stimulated acid secretion / % inhibition of pentagastrin stimulated acid secretion: i.v.
Method: A first series of experiments was carried out on male Wistar rats weighing 300 to 325 g. The procedure used was that of Ghosh and Schild, modified by Lai. The rats fasted for the 18 hours preceding the test. On the day of the test the rats were anaesthesized with urethane by the intraperitoneal route at a rate of 1.20 g of urethane per kilogramme. The rectal temperature was maintained at 34°±1° C. by means of an anal probe connected to a thermometer which electronically controlled the lighting up of a 100 Watt lamp positioned above each rat. An oesophageal probe (polyethylene catheter) was introduced up to the oesophagus--rumen junction of the rat and another catheter was introduced into the pyloric opening via the duodenum. The stomach was perfused with a solution of physiological serum introduced by means of the oesophageal tube at a constant speed of 1 ml/mn and was collected every ten minutes by the pyloroduodenal probe.
The rats prepared in this way were left to rest for a period of at least 45 minutes. The perfusate sampled every 10 minutes was then determined by means of a 0.01 N soda solution at pH 8.45, corresponding to a phenolphthalein colour change or at pH 7.4 with an automatic titration apparatus at constant pH.
After determining the basal acid secretion of the gastric juice on at least four consecutive samples a dose of gastrin was intravenously administered to the rats in the vein of the penis and subsequently the response to this stimulation was recorded until the secretion returned to the basal level over a period of at least twice 10 minutes. […] The results are expressed in microequivalents of hydrochloric acid per 40 minutes and are calculated as follows: either as the number of secreted microequivalents after stimulation less the number of microequivalents secreted in the 40 minutes prior to the injection of the dose, or as an acid peak, i.e., taking the average of the two consecutive maximum responses for each dose less the average value for the two basal values preceding the injection.
The transformation into double inverse makes it possible by analogy with enzymatic reactions to conclude whether the inhibition is of the competitive type or not.

mice = conditions: for number of death cases: group of ten mice
Excerpt: All the dead or surviving animals are autopsied, the stomach and the small intestine are examined for heamorrhages or ulcers.

With “orthonitrophenyl sulphenylated gastrin I [gastrin I-NPS]” the “time until stimulated secretion plateau after introduction of gastrin I” value ([1]; 100 ng/h gastrin I-NPS with 200 ng/h gastrin I, plateau at a lower level) was 30 min, the “time until stimulated secretion plateau after introduction of gastrin I” value ([1]; 100 ng/h gastrin I-NPS with 400 ng/h gastrin I, plateau reaches the level of 100 ng/h gastrin I) was 40 min and the “secretory response to the substance alone” value ([1]; 100 ng/h in intravenous perfusion) was “causes no secretory response”. For the same compound, the “type of inhibition of gastrin I response (double inverse representation)” value ([2]; 100 or 200 ng gastrin I-NPS with each dose of gastrin I) was “inhibition is competitive”, the “% inhibition of gastrin I stimulated acid secretion” value ([2]; ratio gastrin I-NPS/gastrin I 1/1, 50 ng gastrin NPS with 50 ng gastrin I) was 100% and the “% inhibition of gastrin I stimulated acid secretion” value ([2]; ratio gastrin I-NPS/gastrin I 1/2, 50 ng gastrin NPS with 100 ng gastrin I) was 75%. The “% inhibition of gastrin I stimulated acid secretion” value ([2]; ratio gastrin I-NPS/gastrin I 1/3, 50 ng gastrin NPS with 150 ng gastrin I) was 65% and the “% inhibition of gastrin I stimulated acid secretion” value ([2]; ratio gastrin I-NPS/gastrin I 1/4, 50 ng gastrin NPS with 200 ng gastrin I) was less than 35%.

`CSCC[C@H](NC(=O)[C@H](Cc1c[nH]c2ccccc12)NC(=O)CCNC(=O)OC(C)(C)C)C(=O)N[C@@H](CC(=O)O)C(=O)N[C@@H](Cc1ccccc1)C(N)=O` [pentagastrin, Boc-Gly-Trp-Met-Asp-phe-NH2, reference compound] was tested, and the “number of death cases” value (mice; 1280 μg/kg i.p., 2 h) was 1, the “number of death cases” value (mice; 1280 μg/kg i.p., 6 h) was 1 and the “number of death cases” value (mice; 2560 μg/kg i.p., 2 h) was 2. For the same compound, the “number of death cases” value (mice; 2560 μg/kg i.p., 48 h) was 1, the “dose at which digestive hemorrhages are observed” value (mice; i.p., importance increases with the dose) was no less than 0.32 mg/kg and the “LD 50” value (mice; i.p., logit-log paper) was “higher than 3.2 mg/kg”.

With “Boc-Gly-Trp-(NPS)-Met-Aspe-Phe-NH2 [pentagastrin-NPS]” the “inhibition of pentagastrin action” value ([2]; pentagastrin-NPS associated with pentagastrin) was “inhibits the pentagastrin action”, the “% inhibition of pentagastrin stimulated acid secretion” value ([2]; ratio pentagastrin-NPS/pentagastrin 1/1, 50 ng pentagastrin-NPS with 50 ng pentagastrin) was 100% and the “% inhibition of pentagastrin stimulated acid secretion” value ([2]; ratio pentagastrin-NPS/pentagastrin 1/2, 50 ng pentagastrin-NPS with 100 ng pentagastrin) was 100%. The “% inhibition of pentagastrin stimulated acid secretion” value ([2]; ratio pentagastrin-NPS/pentagastrin 1/3, 50 ng pentagastrin-NPS with 150 ng pentagastrin) was 75%, the “% inhibition of pentagastrin stimulated acid secretion” value ([2]; ratio pentagastrin-NPS/pentagastrin 1/4, 50 ng pentagastrin-NPS with 200 ng pentagastrin) was less than 20% and the “number of death cases” value (mice; 1280 μg/kg i.p., 24 h) was 1. The “petechiae at autopsy” value (mice; 2560 μg/kg i.p.) was “a few petechiae are observed”, the “number of death cases” value (mice; 2560 μg/kg i.p., 6 h) was 1 and the “number of death cases” value (mice; 2560 μg/kg i.p., 24 h) was 1. For the same compound, the “number of death cases” value (mice; 2560 μg/kg i.p., 48 h) was 2, the “digestive hemorrhage at autopsy” value (mice; 160 to 2560 μg/kg i.p.) was “does not lead to any digestive hemorrhage” and the “doses leading to no modifications (petechiae) of the stomach and of the intestine” value (mice; i.p.) was “under 2,5 mg/kg”.
